Where “and” joins values, the source holds several entries; their conditions need not be identical. Equal values may be shown once. Marks after values point to notes of the source that are not given here.
Experiments:
Type in all cases: in vivo, rat
[1] = test system: PIIANP; experiment: CIA rats, PIIANP ELISA (synovial fluid or serum)
Protocol: The presence of cartilage regeneration/rebuilding biomarker PIIANP was measured using the Rat Procollagen Type IIA N-Prop (PIIANP) ELISA kit from Mybiosource (product #: MBS9399069) as follows: synovial fluid was added to a microplate coated with PIIANP antibody as well as an HRP-conjugated PIIANP antibody and allowed to bind for one hour at 37° C. The microplate was thoroughly washed, and a Chromagen solution was added and allowed to bind for 15 minutes at 37° C. After the addition of stop solution, the absorbance was read at 450 nm and the concentration of PIIANP calculated based on the absorbance readings of a PIIANP standard curve.
The level of cartilage regeneration biomarker PIIANP was measured using the Rat Procollagen Type IIA N-Prop (PIIANP) ELISA kit from Mybiosource (product #: MBS9399069) as follows: undiluted serum was added to a microplate coated with PIIANP antibody as well as an HRP-conjugated PIIANP antibody and allowed to bind for one hour at 37° C. The microplate was thoroughly washed, and a Chromagen solution was added and allowed to bind for 15 minutes at 37° C. After the addition of stop solution, the absorbance was read at 450 nm and the concentration of PIIANP calculated based on the absorbance readings of a PIIANP standard curve.

[2] = test system: CIA rats; experiment: CIA rats, paw thickness; design: Paw thickness (Mean): unit not given beside the values; details: for % Inhibition Paw thickness (AUC): vs CIA + vehicle
[3] = test system: MMP-13; experiment: CIA rats, serum MMP-13 ELISA; details: for MMP-13: serum
Protocol: The presence of cartilage degradative enzyme MMP-13 was measured using the Rat Matrix Metallo-Proteinase 13 (MMP-13) ELISA kit from Mybiosource (product #: MBS702112 for MMP-13) as follows: serum was added to a microplate coated with MMP-13 antibody and allowed to bind for 2 h at 37° C. The samples were removed and then a biotin-conjugated MMP-13 antibody was added and allowed to bind for 1 h at 37° C. The microplate was thoroughly washed, and an avidin-conjugated Horse Radish Peroxidase was added and allowed to bind for 1 h at 37° C. Enzyme substrate was then added, and the plate was developed for 30 min at 37° C. After the addition of stop solution, the absorbance was read at 450 nm, multiplied by dilution factor, and the concentration of MMP-13 calculated based on the absorbance readings of an MMP-13 standard curve
The presence of cartilage degradative enzyme MMP-13 was measured using the Rat Matrix Metalloproteinase 13 (MMP-13) ELISA kit from Mybiosource (product #: MBS702112) as follows: undiluted serum was added to a microplate coated with MMP-13 antibody and allowed to bind for 2 hours at 37° C. The samples were removed, and then a biotin-conjugated MMP-13 antibody was added and allowed to bind for 1 hour at 37° C. The microplate was thoroughly washed, and an avidin-conjugated Horse Radish Peroxidase was added and allowed to bind for 1 hour at 37° C. Enzyme substrate was then added, and the plate was developed for 30 minutes at 37° C. After the addition of stop solution, the absorbance was read at 450 nm and the concentration of MMP-13 calculated based on the absorbance readings of an MMP-13 standard curve.

[4] = test system: IL-6; experiment: CIA rats, serum IL-6 ELISA; details: for IL-6: serum
Protocol: The presence of catabolic cytokines IL-1β, TNF-α, or IL-6 was measured using Rat IL-1, TNF-α, and IL-6 Quantikine ELISA kit from R and D Systems (product #: RLB00 for IL-1β, RTA00 for TNF-α, and R6000B for IL-6) as follows: diluted serum was added to a microplate coated with polyclonal IL-1, TNF-α, or IL-6 antibody and allowed to bind for 2 h at room temperature. The microplate was washed thoroughly to remove unbound serum and then a polyclonal enzyme-conjugated IL-1β, TNF-α, or IL-6 antibody was added and allowed to bind for 2 h at room temperature. Washing was repeated, enzyme substrate was added, and the plate was developed for 30 min at room temperature. After the addition of stop solution, the absorbance was read at 450 nm, multiplied by dilution factor, and the concentration of IL-1β/TNF-α/IL-6 calculated based on the absorbance readings of an IL-1β/TNF-α/TL-6 standard curve.
The presence of catabolic cytokines IL-6/TNF-α was measured using the Rat IL-6/TNF-α Quantikine ELISA kit from RandD Systems as follows: undiluted serum was added to a microplate coated with polyclonal IL-6/TNF-α antibody and allowed to bind for 2 hours at room temperature. The microplate was washed thoroughly to remove unbound serum, and then a polyclonal enzyme-conjugated IL-6/TNF-α antibody was added and allowed to bind for 2 hours at room temperature. Washing was repeated, enzyme substrate was added, and the plate was developed for 30 minutes at room temperature. After the addition of stop solution, the absorbance was read at 450 nm and the concentration of IL-6/TNF-α calculated based on the absorbance readings of an IL-6/TNF-α standard curve.

[5] = test system: CIA rats; experiment: CIA rats, ankle joint histopathology (modified Mankin)
Protocol: For histopathological examination, the ankle joints were kept in 10% formalin for 72 h. The fixed specimens were then decalcified with Calci-Clear Rapid for one and a half days and embedded in paraffin. Standardized 5 μm serial sections were obtained at the medial and lateral section in the sagittal plane of the joint and were stained with hematoxylin and eosin (HE) and Safranin O-fast green to enable evaluation of proteoglycan content. A modified Mankin system (Mankin et al., 1971) was used to score structural and cellular alterations of joint tissues resulting from disease progression and/or treatment efficacy. The histological analysis was conducted at Nationwide Histology and slides were examined by a certified pathologist.
At necropsy, the ankle joint was carefully dissected out, fixed in 10% buffered formalin and sent to Nationwide Histology (Veradale, Wash., USA) for further histopathology analysis. The fixed specimens were then decalcified with Calci-Clear Rapid for one and a half days and embedded in paraffin. Standardized 5 m serial sections were obtained from each rat and stained with hematoxylin and eosin (HE) and Safranin O-fast green to enable evaluation of proteoglycan content. A modified Mankin system (Mankin et al., 1981) was used to score structural and cellular alterations of articular components as indications of disease progression and/or treatment efficacy. The histological analysis was conducted by a certified Pathologist at Nationwide Histology.

[6] = test system: CIA rats; experiment: CIA rats, ankle diameter
Protocol: Male Sprague Dawley rats (7-8 weeks old, n=40) were purchased from Charles River Laboratories Inc. (Wilmington, Mass., USA) and acclimated upon arrival for two weeks before being assigned randomly to their respective treatment groups: G1=Normal control (−) (n=10/group), G2=collagen-induced arthritis (CIA)+Vehicle (0.5% Carboxy Methylcellulose) (n=10/group), G3=CIA+Methotrexate (+) (75 μg/kg) (n=10/group), and G4=CIA+AMK (+) (200 mg/kg) (n=10/group). Treatment was initiated two weeks before model induction and lasted for an additional three weeks thereafter. Collagen type-II (Lot #845) from bovine nasal septum and Incomplete Freund's adjuvant (IFA) (Lot #SLBR0642v) were purchased from Elastin Products Company (Owensville, Mich., USA) and Sigma (St. Louise, Mo., USA), respectively. All materials were kept at suitable temperatures as recommended by the manufacturer. At the time of preparation, 60 mg of collagen was weighed and added to pre-chilled 15 mL 0.1 M acetic acid in a 60 mL-sized flask with a magnetic stirrer to yield 4 mg/mL concentration (Brand, et al., 2003; Rosloniec et al., 2001).
The mixture was dissolved by gently stirring overnight at 4° C. The next morning, the dissolved collagen was emulsified with equal volume of IFA (15 mL) to achieve a final concentration of 2 mg/mL collagen. Rats sedated with isoflurane were then primed intradermally with 400 μL of the emulsified collagen at the base of their tail at two sites using a 1 mL syringe fitted with a 26 G needle. The dissolved mixture was kept in an ice bucket and stirred between groups at the time of injection to preserve uniform consistency. On the seventh day, rats were inoculated with a booster dose of 2 mg/mL type II collagen emulsified with equal volume of incomplete adjuvant at 100 μL/rat/site.
Clinical findings such as arthritis severity index, paw thickness, ankle diameter (using Digital Absolute, Model #PK-0505CPX, Mitutoyo Corporation, Kawasaki, Japan), and pain sensitivity (using Randall Salitto, IITC Life Science Inc., Woodland Hills, Calif., USA) were monitored during the course of study. Urine was collected from overnight fasted rats using metabolic cages after three weeks of treatment post-model induction. At Necropsy, serum from the cardiac and synovial lavage (100 μL of saline was injected into the articular cavity and aspirated back to the syringe) for biomarkers and ankle joint for histopathology were collected from each animal.
Linear trapezoid rule was used to calculate area under the curve (AUC) for days 9-21. % Inhibition={(Mean value of treatment-mean value of CIA+)/(Mean value of control-mean value of CIA)}*100.
Male Sprague Dawley rats (7-8 weeks old, n=40) were purchased from Charles River Laboratories Inc. (Wilmington, Mass., USA) and acclimated upon arrival for two weeks before being assigned randomly to their respective treatment groups: G1=Normal control (−) (n=10/group), G2=collagen-induced arthritis (CIA)+Vehicle (0.5% Carboxy Methylcellulose) (n=10/group), G3=CIA+Methotrexate (+) (0.5 mg/kg) (n=10/group), and G4=CIA+AP (+) (200 mg/kg) (n=10/group). Treatment was initiated two weeks before model induction and lasted for an additional three weeks thereafter. Collagen type-II (Lot #845) from bovine nasal septum and Incomplete Freund's adjuvant (IFA) (Lot #SLBR0642v) were purchased from Elastin Products Company (Owensville, Mich., USA) and Sigma (St. Louise, Mo., USA), respectively. All materials were kept at suitable temperatures as recommended by the manufacturer. At the time of preparation, 60 mg of collagen was weighed and added to pre-chilled 15 mL 0.1 M acetic acid in a 60 mL-sized flask with a magnetic stirrer to yield 4 mg/mL concentration (Brand, et al., 2003; Rosloniec et al., 2001). The mixture was dissolved by gently stirring overnight at 4° C. The next morning, the dissolved collagen was emulsified with equal volume of IFA (15 mL) to achieve a final concentration of 2 mg/mL collagen.

[7] = AMK CIA study, MTX 75 μg/kg, AMK 200 mg/kg oral
[8] = AP CIA study, Methotrexate 0.5 mg/kg, AP 200 mg/kg oral
[9] = AMK study, MTX 75 μg/kg, AMK 200 mg/kg
[10] = AMK study, MTX (75 μg/mL), AMK (200 mg/kg)
[11] = AP study, MTX (0.5 mg/mL), AP (200 mg/kg) oral 3 weeks
[12] = AP study, MTX (0.5 mg/mL), AP (200 mg/kg)
[13] = score 0-6, AMK study, MTX (75 μg/mL), AMK (200 mg/kg)
[14] = score, AP study, MTX (0.5 mg/mL), AP (200 mg/kg)

For `CN(Cc1cnc2nc(N)nc(N)c2n1)c1ccc(C(=O)N[C@@H](CCC(=O)O)C(=O)O)cc1` [Methotrexate], the “increase in synovial PIIANP vs vehicle-treated CIA” value [1, 7] was 69.8%, the “increase in serum PIIANP vs CIA + vehicle” value [1, 8] was 47% and the PIIANP ([1]; serum, AP study, MTX (0.5 mg/mL), AP (200 mg/kg) oral 3 weeks) was 6.53 ± 1.4 ng/mL. The PIIANP ([1]; synovial fluid, CIA rats, MTX 75 μg/mL (printed), AMK 200 mg/kg) was 0.43 ± 0.16 ng/mg, the “percent reduction in paw thickness / paw edema (AUC) vs vehicle-treated CIA” value ([2]; AMK CIA study, MTX 75 μg/kg, AMK 200 mg/kg oral, area under the swelling curve) was 71.7% and the “AUC(d9-d21) (Mean ± SD) Paw thickness” value [2, 9] was 20.64 ± 0.21. For the same molecule, the “percent reduction in paw thickness / paw edema (AUC) vs vehicle-treated CIA” value [2, 8] was 93.8%, the “AUC(d9-d21) (Mean ± SD) Paw thickness” value ([2]; AP study, MTX 0.5 mg/kg, AP 200 mg/kg) was 15.55 ± 0.21 and the Paw thickness ([2]; Boost, AP study, MTX 0.5 mg/kg, AP 200 mg/kg) was 2.95 ± 0.06. For the same molecule, the “Paw thickness (Mean)” value ([2]; Boost, MTX 75 μg/kg, AMK 200 mg/kg) was 3.07, the “Paw thickness (Mean)” value ([2]; Day 9, MTX 75 μg/kg, AMK 200 mg/kg) was 3.12 and the “Paw thickness (Mean)” value ([2]; Day 10, MTX 75 μg/kg, AMK 200 mg/kg) was 3.17. The “Paw thickness (Mean)” value ([2]; Day 11, MTX 75 μg/kg, AMK 200 mg/kg) was 3.32, the Paw thickness ([2]; Day 12, AP study, MTX 0.5 mg/kg, AP 200 mg/kg) was 2.99 ± 0.06 and the “Paw thickness (Mean)” value ([2]; Day 12, MTX 75 μg/kg, AMK 200 mg/kg) was 3.47*. For the same molecule, the “Paw thickness (Mean)” value ([2]; Day 13, MTX 75 μg/kg, AMK 200 mg/kg) was 3.53*, the Paw thickness ([2]; Day 14, AP study, MTX 0.5 mg/kg, AP 200 mg/kg) was 3.01 ± 0.03 and the “Paw thickness (Mean)” value ([2]; Day 14, MTX 75 μg/kg, AMK 200 mg/kg) was 3.60*. For the same molecule, the “Paw thickness (Mean)” value ([2]; Day 15, MTX 75 μg/kg, AMK 200 mg/kg) was 3.98^†, the Paw thickness ([2]; Day 16, AP study, MTX 0.5 mg/kg, AP 200 mg/kg) was 3.21 ± 0.05 and the “Paw thickness (Mean)” value ([2]; Day 16, MTX 75 μg/kg, AMK 200 mg/kg) was 4.32^†. The “Paw thickness (Mean)” value ([2]; Day 17, MTX 75 μg/kg, AMK 200 mg/kg) was 3.96^¥, the Paw thickness ([2]; Day 18, AP study, MTX 0.5 mg/kg, AP 200 mg/kg) was 3.25 ± 0.05 and the “Paw thickness (Mean)” value ([2]; Day 19, MTX 75 μg/kg, AMK 200 mg/kg) was 3.06^¥. For the same molecule, the Paw thickness ([2]; Day 20, AP study, MTX 0.5 mg/kg, AP 200 mg/kg) was 3.23 ± 0.06, the “Paw thickness (Mean)” value ([2]; Day 21, MTX 75 μg/kg, AMK 200 mg/kg) was 3.07^€ and the Paw thickness ([2]; Priming, AP study, MTX 0.5 mg/kg, AP 200 mg/kg) was 2.93 ± 0.07. For the same molecule, the “Paw thickness (Mean)” value ([2]; Priming, MTX 75 μg/kg, AMK 200 mg/kg) was 3.06, the “% Inhibition Paw thickness (AUC)” value ([2]; MTX 75 μg/kg, AMK 200 mg/kg) was 71.71% and the “% Inhibition Paw thickness (AUC)” value ([2]; MTX 0.5 mg/kg, AP 200 mg/kg) was 93.81%. For the same molecule, the “serum MMP-13 inhibition compared to vehicle-treated CIA rats” value [3, 7] was 78.6%, the MMP-13 [3, 10] was 9.67 ± 1.80 pg/mL and the MMP-13 [3, 11] was 86.57 ± 45.31 pg/mL. The “serum IL-6 inhibition compared to diseased control” value [4, 7] was 78.6%, the IL-6 [4, 10] was 10.23 ± 7.37 pg/mL and the IL-6 [4, 11] was 3.33 ± 6.44 pg/mL. For the same molecule, the “Bone Erosion, percent inhibition against vehicle treated disease model” value [5, 10] was “(66.3%)”, the “Cartilage destruction, percent inhibition against vehicle treated disease model” value [5, 10] was “(32.6%)” and the “GAG Loss, percent inhibition against vehicle treated disease model” value [5, 10] was “(50.8%)”. For the same molecule, the “Inflammation, percent inhibition against vehicle treated disease model” value [5, 10] was “(36.0%)”, the “Bone Erosion, percent inhibition against vehicle treated disease model” value [5, 12] was “(100%)” and the “Cartilage destruction, percent inhibition against vehicle treated disease model” value [5, 12] was “(98.3%)”. For the same molecule, the “GAG Loss, percent inhibition against vehicle treated disease model” value [5, 12] was “(94.5%)”, the “Inflammation, percent inhibition against vehicle treated disease model” value [5, 12] was “(100%)” and the “Bone Erosion (Mean ± SE)” value [5, 13] was 1.13 ± 0.46. The “Cartilage destruction (Mean ± SE)” value [5, 13] was 2.90 ± 0.63, the “GAG Loss (Mean ± SE)” value [5, 13] was 2.04 ± 0.62 and the “Inflammation (Mean ± SE)” value [5, 13] was 3.25 ± 1.02. For the same molecule, the “Bone Erosion (Mean ± SE)” value [5, 14] was 0.00 ± 0.00, the “Cartilage destruction (Mean ± SE)” value [5, 14] was 0.13 ± 0.05 and the “GAG Loss (Mean ± SD)” value [5, 14] was 0.21 ± 0.17. The “Inflammation (Mean ± SE)” value [5, 14] was 0.00 ± 0.00, the “percent reduction in ankle diameter (AUC) vs vehicle-treated CIA” value ([6]; AMK CIA study, MTX 75 μg/kg, AMK 200 mg/kg oral, AUC days 9-21) was 65.94% and 65.9% and the “AUC(d9-d21) (Mean ± SD) Ankle diameter” value [6, 9] was 39.11 ± 0.21. For the same molecule, the “percent reduction in ankle diameter (AUC) vs vehicle-treated CIA” value [6, 8] was 93.6%.

Reference: patent US20220000964A1, “Compositions and Methods for Regulating Homeostasis of Chondrocytes, Extracellular Matrix, Articular Cartilage, and Phenotype of Arthritis” (Unigen, Inc., priority 2020, published 2022)
